Measurements as given in patent publication US12441689B2 (EpiVario, Inc., priority 2019, dated 2025).

Biological target: human ACSS2 protein (Homo sapiens (Human), UniProt Q9NR19)
Assay: ACSS2 Cell-Free Activity Assay (Cell-Free IC50)
Conditions: 10 nM human ACSS2 protein, 90 minutes at 37 C, pyrophosphatase-coupled, Biomol Green absorbance at 620 nm; read-out: ACSS2 Biochemical IC50
Source text: ACSS2 Cell-Free Activity Assay (Cell-Free IC50)

Chain of human ACSS2 protein (Q9NR19 whole entry): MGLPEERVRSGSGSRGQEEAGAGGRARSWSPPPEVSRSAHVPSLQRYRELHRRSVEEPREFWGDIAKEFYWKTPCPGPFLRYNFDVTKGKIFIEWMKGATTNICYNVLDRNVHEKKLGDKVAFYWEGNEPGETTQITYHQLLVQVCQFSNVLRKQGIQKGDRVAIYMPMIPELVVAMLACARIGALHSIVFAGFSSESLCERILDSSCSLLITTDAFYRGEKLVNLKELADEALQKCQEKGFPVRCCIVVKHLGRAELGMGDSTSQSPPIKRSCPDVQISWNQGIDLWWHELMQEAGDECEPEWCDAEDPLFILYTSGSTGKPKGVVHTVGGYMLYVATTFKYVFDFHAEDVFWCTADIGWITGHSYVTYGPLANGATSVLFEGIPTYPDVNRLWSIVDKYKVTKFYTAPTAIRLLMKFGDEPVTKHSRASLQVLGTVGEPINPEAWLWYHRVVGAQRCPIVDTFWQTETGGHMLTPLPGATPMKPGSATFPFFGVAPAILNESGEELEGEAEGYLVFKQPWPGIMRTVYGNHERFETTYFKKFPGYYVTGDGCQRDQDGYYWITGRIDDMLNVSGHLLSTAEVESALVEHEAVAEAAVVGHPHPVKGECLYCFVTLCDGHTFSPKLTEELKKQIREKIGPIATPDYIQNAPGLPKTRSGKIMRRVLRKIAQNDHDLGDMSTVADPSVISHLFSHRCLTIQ

| IC50 [nM] | SMILES |
| --- | --- |
| > 100 | CCc1c(C(=O)Nc2cccc(C(C)(F)F)c2)c(C)nn1-c1ccc(OC(F)F)c(-c2cccnc2)c1 [Compound 152, N-[3-(1,1-difluoroethyl)phenyl]-1-[4-(difluoromethoxy)-3-(3-pyridyl)phenyl]-5-ethyl-3-methyl-pyrazole-4-carboxamide] |
| > 100 | COc1ccc(-c2nc(C(=O)Nc3cccc(C(C)(F)F)c3)c(C)o2)cc1 [Compound 153, N-[3-(1,1-difluoroethyl)phenyl]-2-(4-methoxyphenyl)-5-methyl-oxazole-4-carboxamide] |
| > 100 | Cc1nn(-c2ccc(OC(F)F)cc2)c(C2CCCC2)c1C(=O)Nc1cccc(C(C)(F)F)c1 [Compound 154, 5-cyclopentyl-N-[3-(1,1-difluoroethyl)phenyl]-1-[4-(difluoromethoxy)phenyl]-3-methyl-pyrazole-4-carboxamide] |
| > 100 | CCc1nn(-c2ccc(OC(F)F)cc2)c(C)c1C(=O)Nc1cccc(C(C)(F)F)c1 [Compound 155, N-(3-(1,1-difluoroethyl)phenyl)-1-(4-(difluoromethoxy)phenyl)-3-ethyl-5-methyl-1H-pyrazole-4-carboxamide] |
| > 100 | CCc1c(C(=O)Nc2cccc(C(C)(F)F)c2)c(C)nn1-c1ccc(OC(F)F)cc1 [Compound 156, N-(3-(1,1-difluoroethyl)phenyl)-1-(4-(difluoromethoxy)phenyl)-5-ethyl-3-methyl-1H-pyrazole-4-carboxamide] |
| > 100 | CC1=NN(c2ccc(OC(F)F)cc2)C(=O)C1(C)C(=O)Nc1cc(C)cc(Cl)c1 (stereo not drawn) [Compound 157, N-(3-chloro-5-methyl-phenyl)-1-[4-(difluoromethoxy)phenyl]-3,4-dimethyl-5-oxo-pyrazole-4-carboxamide] |
| > 100 | CCCC1(C(=O)Nc2cccc(C(C)(F)F)c2)C(=O)N(c2ccc(OC(F)F)cc2)N=C1C (stereo not drawn) [Compound 158, N-(3-(1,1-difluoroethyl)phenyl)-1-(4-(difluoromethoxy)phenyl)-3-methyl-5-oxo-4-propyl-4,5-dihydro-1H-pyrazole-4-carboxamide] |
| 1 to 100 | CCC1(C(=O)Nc2cccc(C(C)(F)F)c2)C(=O)N(c2ccc(OC(F)F)cc2)N=C1C (stereo not drawn) [Compound 159, N-(3-(1,1-difluoroethyl)phenyl)-1-(4-(difluoromethoxy)phenyl)-4-ethyl-3-methyl-5-oxo-4,5-dihydro-1H-pyrazole-4-carboxamide] |
| < 1 | CCCc1cc(N2N=C(C)C(C(=O)Nc3cccc(C(C)(F)F)c3)C2=O)cc(-c2ccccc2)c1OC (stereo not drawn) [Compound 161, N-(3-(1,1-difluoroethyl)phenyl)-1-(6-methoxy-5-propyl-[1,1′-biphenyl]-3-yl)-3-methyl-5-oxo-4,5-dihydro-1H-pyrazole-4-carboxamide] |
| 1 to 100 | CNc1c(C(=O)Nc2cccc(C(C)(F)F)c2)c(C)nn1-c1ccc(OC(F)F)cc1 [Compound 162, N-(3-(1,1-difluoroethyl)phenyl)-1-(4-(difluoromethoxy)phenyl)-3-methyl-5-(methylamino)-1H-pyrazole-4-carboxamide] |
| < 1 | CCC(F)(F)c1cccc(NC(=O)C2(Cl)C(=O)N(c3ccc(OC(F)F)cc3)N=C2C)c1 (stereo not drawn) [Compound 163, 4-chloro-1-(4-(difluoromethoxy)phenyl)-N-(3-(1,1-difluoropropyl)phenyl)-3-methyl-5-oxo-4,5-dihydro-1H-pyrazole-4-carboxamide] |
| > 100 | Cc1nn(-c2ccc(OC(F)F)cc2)nc1C(=O)Nc1cccc(C(C)(F)F)c1 [Compound 164, N-(3-(1,1-difluoroethyl)phenyl)-2-(4-(difluoromethoxy)phenyl)-5-methyl-2H-1,2,3-triazole-4-carboxamide] |
| > 100 | CC1=NN(c2ccc(OC(F)F)cc2)C(=O)C1(C)C(=O)Nc1cc(Cl)c(F)c(Cl)c1 (stereo not drawn) [Compound 165, N-(3,5-dichloro-4-fluoro-phenyl)-1-[4-(difluoromethoxy)phenyl]-3,4-dimethyl-5-oxo-pyrazole-4-carboxamide] |
| > 100 | CC1=NN(c2ccc(OC(F)F)cc2)C(=O)C1(C)C(=O)Nc1cc(F)cc(Cl)c1 (stereo not drawn) [Compound 166, N-(3-chloro-5-fluoro-phenyl)-1-[4-(difluoromethoxy)phenyl]-3,4-dimethyl-5-oxo-pyrazole-4-carboxamide] |
| > 100 | CC1=NN(c2ccc(OC(F)F)cc2)C(=O)C1(C)C(=O)Nc1cccc(Cl)c1 (stereo not drawn) [Compound 167, N-(3-chlorophenyl)-1-[4-(difluoromethoxy)phenyl]-3,4-dimethyl-5-oxo-pyrazole-4-carboxamide] |
| 1 to 100 | Cc1nn(-c2ccc(OC(F)F)cc2)c(N(C)C)c1C(=O)Nc1cccc(C(C)(F)F)c1 [Compound 168, N-(3-(1,1-difluoroethyl)phenyl)-1-(4-(difluoromethoxy)phenyl)-5-(dimethylamino)-3-methyl-1H-pyrazole-4-carboxamide] |

| IC50 [nM] | SMILES |
| --- | --- |
| > 100 | CC1=NN(c2ccc(OC(F)F)cc2)C(=O)[C@@]1(C)C(=O)Nc1cccc(C(C)(F)F)c1 [Compound 169, (4R)—N-(3-(1,1-difluoroethyl)phenyl)-1-(4-(difluoromethoxy)phenyl)-3,4-dimethyl-5-oxo-4,5-dihydro-1H-pyrazole-4-carboxamide] |
| > 100 | CC1=NN(c2ccc(OC(F)F)cc2)C(=O)[C@]1(C)C(=O)Nc1cccc(C(C)(F)F)c1 [Compound 170, (4S)—N-(3-(1,1-difluoroethyl)phenyl)-1-(4-(difluoromethoxy)phenyl)-3,4-dimethyl-5-oxo-4,5-dihydro-1H-pyrazole-4-carboxamide] |
| > 100 | Cc1nn(-c2ccc(OC(F)F)cc2)c(N)c1C(=O)Nc1cccc(C(C)(F)F)c1 [Compound 171, 5-amino-N-(3-(1,1-difluoroethyl)phenyl)-1-(4-(difluoromethoxy)phenyl)-3-methyl-1H-pyrazole-4-carboxamide] |
| 1 to 100 | CC1=NN(c2ccc(OC(F)F)cc2)C(=O)C1(Cl)C(=O)Nc1cccc(C(C)(F)F)c1 (stereo not drawn) [Compound 172, 4-chloro-N-(3-(1,1-difluoroethyl)phenyl)-1-(4-(difluoromethoxy)phenyl)-3-methyl-5-oxo-4,5-dihydro-1H-pyrazole-4-carboxamide] |
| > 100 | CC(F)(F)c1cccc(NC(=O)c2cnc(-c3ccc(OC(F)F)cc3)nc2)c1 [Compound 173, N-(3-(1,1-difluoroethyl)phenyl)-2-(4-(difluoromethoxy)phenyl)pyrimidine-5-carboxamide] |
| > 100 | CC1=NN(c2ccc(OC(F)F)cc2)C(=O)C1(C)C(=O)Nc1cccc(C(C)(F)F)c1 (stereo not drawn) [Compound 174, N-(3-(1,1-difluoroethyl)phenyl)-1-(4-(difluoromethoxy)phenyl)-3,4-dimethyl-5-oxo-4,5-dihydro-1H-pyrazole-4-carboxamide] |
| 1 to 100 | Cc1nn(-c2ccc(OC(F)F)c(-c3ccccn3)c2)cc1C(=O)Nc1cccc(C(C)(F)F)c1 [Compound 175, N-[3-(1,1-difluoroethyl)phenyl]-1-[4-(difluoromethoxy)-3-(2-pyridyl)phenyl]-3-methyl-pyrazole-4-carboxamide] |
| 1 to 100 | Cc1nn(-c2cc(-c3ccccc3)c(OC(F)F)c(-c3ccccc3)c2)cc1C(=O)Nc1cccc(C(C)(F)F)c1 [Compound 176, N-(3-(1,1-difluoroethyl)phenyl)-1-(2′-(difluoromethoxy)-[1,1′:3′,1″-terphenyl]-5′-yl)-3-methyl-1H-pyrazole-4-carboxamide] |
| 1 to 100 | Cc1nn(-c2ccc(OC(F)F)c(-c3ccccn3)c2)c(C)c1C(=O)Nc1cccc(C(C)(F)F)c1 [Compound 177, N-(3-(1,1-difluoroethyl)phenyl)-1-(4-(difluoromethoxy)-3-(pyridin-2-yl)phenyl)-3,5-dimethyl-1H-pyrazole-4-carboxamide] |
| 1 to 100 | Cc1nn(-c2ccc(OC(F)F)c(-c3ccccc3)c2)c(C)c1C(=O)Nc1cccc(C(C)(F)F)c1 [Compound 178] |
| 1 to 100 | Cc1nn(-c2ccc(OC(F)F)c(-c3cccnc3)c2)c(C)c1C(=O)Nc1cccc(C(C)(F)F)c1 [Compound 179, N-(3-(1,1-difluoroethyl)phenyl)-1-(4-(difluoromethoxy)-3-(pyridin-3-yl)phenyl)-3,5-dimethyl-1H-pyrazole-4-carboxamide] |
| 1 to 100 | COc1c(C)cc(N2N=C(C)C(C(=O)Nc3cccc(C(C)(F)F)c3)C2=O)cc1-c1ccccc1 (stereo not drawn) [Compound 180, N-[3-(1,1-difluoroethyl)phenyl]-1-(4-methoxy-3-methyl-5-phenyl-phenyl)-3-methyl-5-oxo-4H-pyrazole-4-carboxamide] |
| 1 to 100 | Cc1nn(-c2ccc(OC(F)F)c(-c3ccncc3)c2)cc1C(=O)Nc1cccc(C(C)(F)F)c1 [Compound 181, N-(3-(1,1-difluoroethyl)phenyl)-1-(4-(difluoromethoxy)-3-(pyridin-4-yl)phenyl)-3-methyl-1H-pyrazole-4-carboxamide] |
| 1 to 100 | Cc1nn(-c2ccc(OC(F)F)c(-c3cccnc3)c2)cc1C(=O)Nc1cccc(C(C)(F)F)c1 [Compound 182, N-(3-(1,1-difluoroethyl)phenyl)-1-(4-(difluoromethoxy)-3-(pyridin-3-yl)phenyl)-3-methyl-1H-pyrazole-4-carboxamide] |
| > 100 | Cc1nn(-c2ccc(OC(F)F)cc2)c(C)c1C(=O)Nc1cccc(C(C)(F)F)c1 [Compound 184, N-(3-(1,1-difluoroethyl)phenyl)-1-(4-(difluoromethoxy)phenyl)-3,5-dimethyl-1H-pyrazole-4-carboxamide] |

| SMILES | IC50 [nM] |
| --- | --- |
| Cc1nn(-c2ccc(OC(F)F)c(-c3cccnc3)c2)c(OC(=O)N2CCN(C(C)(C)CO)CC2)c1C(=O)Nc1cccc(C(C)(F)F)c1 [Compound 183, 4-((3-(1,1-difluoroethyl)phenyl)carbamoyl)-1-(4-(difluoromethoxy)-3-(pyridin-3-yl)phenyl)-3-methyl-1H-pyrazol-5-yl 4-(1-hydroxy-2-methylpropan-2-yl)piperazine-1-carboxylate] | > 100 |
| Cc1nn(-c2ccc(OC(F)F)cc2)c(OC(=O)N2CCN(C(C)(C)CO)CC2)c1C(=O)Nc1cccc(C(C)(F)F)c1 [Compound 185, 4-((3-(1,1-difluoroethyl)phenyl)carbamoyl)-1-(4-(difluoromethoxy)phenyl)-3-methyl-1H-pyrazol-5-yl 4-(1-hydroxy-2-methylpropan-2-yl)piperazine-1-carboxylate] | > 100 |
